ChEMBL document CHEMBL4831510, “Novel cannabidiol-carbamate hybrids as selective BuChE inhibitors: Docking-based fragment reassembly for the development of potential therapeutic agents against Alzheimer's disease” (Eur J Med Chem, 2021)
Active and inactive are the calls of the source. The calls are words filed in the database; no cut-off is given here.

Assays:
[1] = Antioxidant activity assessed as DPPH radical scavenging activity at 100 uM incubated for 2 hrs by microplate reader method; type: functional
Mus musculus [2] = assay: Anti-alzheimer activity against scopolamine-induced cognitive dysfunction mouse model assessed as reduction in escape time latency at 10 mg/kg, ip measured after 60 mins by Morris water maze test; type: functional, organism-based
Mus musculus [3] = assay: Anti-alzheimer activity against oligomerized-amyloid beta (1 to 42) peptide-induced cognitive dysfunction ICR mouse model assessed as improvement in alteration performance at 15 mg/kg, po administered from day 3 to 14 by […]; type: functional, organism-based; conditions: time 12.0 day
Mus musculus [4] = assay: Anti-alzheimer activity against oligomerized-amyloid beta (1 to 42) peptide-induced cognitive dysfunction ICR mouse model assessed as reduction in escape latency time at 15 mg/kg, po administered from day 3 to 14 by Morris water maze test; type: functional, organism-based; conditions: time 12.0 day
Mus musculus [5] = assay: Anti-alzheimer activity against scopolamine-induced cognitive dysfunction mouse model assessed as increase in number of platform crossing at 10 mg/kg, ip measured after 60 mins by Morris water maze test; type: functional, organism-based
[6] = Cytotoxicity against human HepG2 cells assessed as cell viability at 50 uM incubated for 24 hrs by MTT assay; type: cell-based; conditions: read-out: Activity
Mus musculus [7] = assay: Anti-alzheimer activity against oligomerized-amyloid beta (1 to 42) peptide-induced cognitive dysfunction ICR mouse model assessed as simplification of trajectories to the platform at 15 mg/kg, po administered from day 3 to 14 by Morris water maze test; type: functional, organism-based; conditions: time 12.0 day
Mus musculus [8] = species on record: Mus musculus; assay: animal or person; conditions: ICR, po, 288 h, read-out: INH
Description: Anti-alzheimer activity against oligomerized-amyloid beta (1 to 42) peptide-induced cognitive dysfunction ICR mouse model assessed as reduction in amyloid beta (1 to 42) peptide level in brain at 15 mg/kg, po administered from day 3 to 14 by ELISA

Mus musculus [9] = assay: Anti-alzheimer activity against scopolamine-induced cognitive dysfunction mouse model assessed as increase in swimming time in the target quadrant crossing at 10 mg/kg, ip measured after 60 mins by Morris water maze test; type: functional, organism-based
[10] = Cytotoxicity against human L02 cells assessed as cell viability at 50 uM incubated for 24 hrs by MTT assay; type: cell-based; conditions: read-out: Activity
Cholinesterase [11] = molecular target: T1, Cholinesterase (Equus caballus, UniProt P81908)
Description: Inhibition of equine serum BuChE using butyrylthiocholine iodide as substrate preincubated with enzyme for 20 mins followed by substrate addition and measured after 20 mins by Ellman's method

PC-12 [12] = assay: Neuroprotective activity against H2O2-induced cytotoxicity in rat PC-12 cells assessed as cell viability at 25 uM pretreated for 3 hrs followed by H2O2 stimulation and measured after 24 hrs by MTT assay (reference value: 38.7%); type: functional; conditions: time 27 hrs, read-out: Activity
Acetylcholinesterase [13] = molecular target: Acetylcholinesterase (Electrophorus electricus, UniProt O42275); assay: Inhibition of electric eel AChE using acetylthiocholine iodide as substrate preincubated with enzyme for 20 mins followed by substrate addition and measured after 20 mins by Ellman's method
[14] = n-Octanol/PBS partition coefficient, logP of the compound incubated for 48 hrs at pH 7.4 by shake flask method; type: physicochemical
[15] = Cytotoxicity against human HepG2 cells assessed as cell viability at 25 uM incubated for 24 hrs by MTT assay; type: cell-based; conditions: read-out: Activity
[16] = Permeability of the compound at 100 ug/ml incubated for 18 hrs by PAMPA; type: ADME; conditions: dose 100 µg/ml, read-out: permeability
[17] = molecular target: Cholinesterase (Equus caballus) (UniProt P81908); assay: Pseudo-irreversible inhibition of equine serum BuChE assessed as overall carbamolyation-rate using butyrylthiocholine iodide as substrate preincubated with enzyme for 60 mins prior to substrate addition; type: cell-free
Cholinesterase [18] = molecular target: T1, Cholinesterase; assay: Pseudo-irreversible inhibition of equine serum BuChE assessed as binding affinity in an equilibrium state using butyrylthiocholine iodide as substrate preincubated with enzyme for 60 mins prior to substrate addition; type: cell-free
[19] = molecular target: Cholinesterase (Equus caballus) (UniProt P81908); assay: Pseudo-irreversible inhibition of equine serum BuChE assessed as carbamolyation-rate using butyrylthiocholine iodide as substrate preincubated with enzyme for 60 mins prior to substrate addition; type: cell-free
[20] = molecular target: Cholinesterase (Equus caballus) (UniProt P81908); assay: Pseudo-irreversible inhibition of equine serum BuChE assessed as decarbamolyation-rate using butyrylthiocholine iodide as substrate preincubated with enzyme for 60 mins prior to substrate addition; type: cell-free
[21] = Acute toxicity in ICR mouse assessed as behavioral changes at 1 g/kg, ig measured for 7 days; conditions: in vivo, po, 1000 mg/kg, 168 h, time 7 day
Mus musculus [22] = assay: Anti-alzheimer activity against oligomerized-amyloid beta (1 to 42) peptide-induced cognitive dysfunction ICR mouse model assessed as reduction in escape latency time at 5 mg/kg, po administered from day 3 to 14 by Morris water maze test; type: functional, organism-based; conditions: time 12.0 day
Mus musculus [23] = assay: Anti-alzheimer activity against oligomerized-amyloid beta (1 to 42) peptide-induced cognitive dysfunction ICR mouse model assessed as improvement in alteration performance at 5 mg/kg, po administered from day 3 to 14 by […]; type: functional, organism-based; conditions: time 12.0 day
Mus musculus [24] = assay: Anti-alzheimer activity against oligomerized-amyloid beta (1 to 42) peptide-induced cognitive dysfunction ICR mouse model assessed as reduction in amyloid beta (1 to 42) peptide level in brain at 5 mg/kg, po administered from day 3 to 14 by ELISA; type: functional; conditions: 288 h, time 12 day
[25] = Hepatotoxicity in ICR mouse assessed as distinct fatty degeneration of hepatocytes of the surrounding intermediate and peripheral zones in liver at 30 mg/kg, ig measured after 36 hrs by immunohistochemical staining based analysis; type: toxicity, organism-based; conditions: in vivo, po
[26] = Hepatotoxicity in ICR mouse assessed as pericentral necrosis in liver at 30 mg/kg, ig measured after 36 hrs by immunohistochemical staining based analysis; type: toxicity, organism-based; conditions: in vivo, po
Mus musculus [27] = assay: Anti-alzheimer activity against oligomerized-amyloid beta (1 to 42) peptide-induced cognitive dysfunction ICR mouse model assessed as simplification of trajectories to the platform at 5 mg/kg, po administered from day 3 to 14 by Morris water maze test; type: functional, organism-based; conditions: time 12.0 day
Mus musculus [28] = assay: Anti-alzheimer activity against scopolamine-induced cognitive dysfunction mouse model assessed as increase in number of platform crossing at 20 mg/kg, ip measured after 60 mins by Morris water maze test; type: functional, organism-based
Mus musculus [29] = assay: Anti-alzheimer activity against oligomerized-amyloid beta (1 to 42) peptide-induced cognitive dysfunction ICR mouse model assessed as increase in neuronal density at CA1 region of hippocampus at 5 mg/kg, po administered from day 3 to 14 by Hematoxylin-Eosin staining based microscopic analysis; type: functional, organism-based; conditions: time 12.0 day
[30] = Hepatotoxicity in ICR mouse assessed as effect on AST level in serum at 30 mg/kg, ig measured after 36 hrs; type: toxicity, organism-based; conditions: in vivo, po
[31] = Hepatotoxicity in ICR mouse assessed as effect on ALT level in serum at 30 mg/kg, ig measured after 36 hrs; type: toxicity, organism-based; conditions: in vivo, po
Acetylcholinesterase [32] = molecular target: Acetylcholinesterase (Homo sapiens, UniProt P22303); assay: Inhibition of human AChE using acetylthiocholine iodide as substrate at 20 uM preincubated with enzyme for 5 mins followed by substrate addition and measured after 5 mins by Ellman's method; conditions: time 10.0 min
Mus musculus [33] = assay: Anti-alzheimer activity against scopolamine-induced cognitive dysfunction mouse model assessed as increase in swimming time in the target quadrant crossing at 20 mg/kg, ip measured after 60 mins by Morris water maze test; type: functional, organism-based
[34] = molecular target: Acetylcholinesterase (Electrophorus electricus) (UniProt O42275); assay: Inhibition of electric eel AChE using acetylthiocholine iodide as substrate at 20 uM preincubated with enzyme for 20 mins followed by substrate addition and measured after 20 mins by Ellman's method; conditions: time 40.0 min
PC-12 [35] = assay: Neuroprotective activity against H2O2-induced cytotoxicity in rat PC-12 cells assessed as increase in cell viability pretreated for 3 hrs followed by H2O2 stimulation and measured after 24 hrs by MTT assay; type: functional, cell-based; conditions: time 27.0 hrs
[36] = Acute toxicity in ICR mouse assessed as effect on body weight at 1 g/kg, ig measured for 14 days; conditions: in vivo, po, 1000 mg/kg, 336 h, time 14 day
Cholinesterase [37] = molecular target: Cholinesterase (Homo sapiens, UniProt P06276)
Description: Inhibition of human serum BuChE using butyrylthiocholine iodide as substrate preincubated with enzyme for 5 mins followed by substrate addition and measured after 5 mins by Ellman's method

[38] = Acute toxicity in ICR mouse assessed as animal death at 1 g/kg, ig measured for 7 days; conditions: in vivo, po, 1000 mg/kg, 168 h, time 7 day
Mus musculus [39] = assay: Anti-alzheimer activity against scopolamine-induced cognitive dysfunction mouse model assessed as reduction in escape time latency at 20 mg/kg, ip measured after 60 mins by Morris water maze test; type: functional, organism-based

T1 sequence (P81908 whole entry): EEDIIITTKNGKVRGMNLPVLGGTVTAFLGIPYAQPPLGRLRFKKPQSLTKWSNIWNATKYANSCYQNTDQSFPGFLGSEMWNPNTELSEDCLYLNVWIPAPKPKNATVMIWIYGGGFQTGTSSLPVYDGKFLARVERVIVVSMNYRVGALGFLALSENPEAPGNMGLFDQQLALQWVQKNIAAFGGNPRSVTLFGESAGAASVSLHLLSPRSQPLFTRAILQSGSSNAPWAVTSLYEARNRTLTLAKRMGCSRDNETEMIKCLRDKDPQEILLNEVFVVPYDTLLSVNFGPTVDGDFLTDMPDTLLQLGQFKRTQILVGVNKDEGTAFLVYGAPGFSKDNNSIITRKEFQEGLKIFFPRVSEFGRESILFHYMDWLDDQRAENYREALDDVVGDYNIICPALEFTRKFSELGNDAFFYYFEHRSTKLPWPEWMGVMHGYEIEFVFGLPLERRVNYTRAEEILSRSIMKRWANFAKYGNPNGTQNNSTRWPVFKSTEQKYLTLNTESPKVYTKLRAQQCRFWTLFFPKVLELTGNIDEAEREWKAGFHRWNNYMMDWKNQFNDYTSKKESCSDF
Sequence of Cholinesterase (Equus caballus) (P81908 whole entry): as above
Sequence of Acetylcholinesterase (Electrophorus electricus, UniProt O42275) (O42275 whole entry): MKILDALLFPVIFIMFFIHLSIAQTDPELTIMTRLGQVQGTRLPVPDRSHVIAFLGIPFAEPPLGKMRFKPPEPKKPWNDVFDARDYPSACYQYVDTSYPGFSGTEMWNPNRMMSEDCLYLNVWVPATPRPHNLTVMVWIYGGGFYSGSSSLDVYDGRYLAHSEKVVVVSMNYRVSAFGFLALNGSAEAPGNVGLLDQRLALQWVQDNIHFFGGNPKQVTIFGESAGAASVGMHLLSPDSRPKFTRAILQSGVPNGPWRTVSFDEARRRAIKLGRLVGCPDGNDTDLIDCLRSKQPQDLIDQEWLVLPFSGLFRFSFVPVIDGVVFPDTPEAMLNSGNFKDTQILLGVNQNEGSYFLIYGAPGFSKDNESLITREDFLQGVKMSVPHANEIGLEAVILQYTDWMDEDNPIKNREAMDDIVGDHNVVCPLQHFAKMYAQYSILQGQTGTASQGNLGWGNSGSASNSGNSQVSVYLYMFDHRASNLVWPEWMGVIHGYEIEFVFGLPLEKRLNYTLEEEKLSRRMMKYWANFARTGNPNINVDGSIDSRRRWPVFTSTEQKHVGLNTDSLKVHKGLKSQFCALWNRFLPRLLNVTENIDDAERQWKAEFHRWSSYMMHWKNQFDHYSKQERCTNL
Sequence of Acetylcholinesterase (Electrophorus electricus) (O42275 24-633 limits assumed): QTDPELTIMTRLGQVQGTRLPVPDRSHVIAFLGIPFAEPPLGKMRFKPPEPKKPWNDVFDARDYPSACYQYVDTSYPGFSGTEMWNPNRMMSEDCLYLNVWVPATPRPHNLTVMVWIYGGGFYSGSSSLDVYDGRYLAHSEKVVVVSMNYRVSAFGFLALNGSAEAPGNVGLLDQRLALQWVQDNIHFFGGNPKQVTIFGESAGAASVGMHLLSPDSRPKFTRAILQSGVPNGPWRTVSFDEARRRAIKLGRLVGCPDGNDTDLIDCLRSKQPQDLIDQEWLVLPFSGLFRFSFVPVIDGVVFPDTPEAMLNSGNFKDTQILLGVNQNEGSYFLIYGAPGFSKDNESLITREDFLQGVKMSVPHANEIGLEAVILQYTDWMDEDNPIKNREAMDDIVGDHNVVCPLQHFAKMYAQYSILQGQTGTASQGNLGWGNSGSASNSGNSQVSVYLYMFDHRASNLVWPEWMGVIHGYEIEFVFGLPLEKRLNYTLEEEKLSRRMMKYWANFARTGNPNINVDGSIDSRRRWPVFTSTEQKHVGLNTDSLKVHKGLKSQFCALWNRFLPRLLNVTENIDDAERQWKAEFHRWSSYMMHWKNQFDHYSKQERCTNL
Sequence of Acetylcholinesterase (Homo sapiens, UniProt P22303) (P22303 whole entry): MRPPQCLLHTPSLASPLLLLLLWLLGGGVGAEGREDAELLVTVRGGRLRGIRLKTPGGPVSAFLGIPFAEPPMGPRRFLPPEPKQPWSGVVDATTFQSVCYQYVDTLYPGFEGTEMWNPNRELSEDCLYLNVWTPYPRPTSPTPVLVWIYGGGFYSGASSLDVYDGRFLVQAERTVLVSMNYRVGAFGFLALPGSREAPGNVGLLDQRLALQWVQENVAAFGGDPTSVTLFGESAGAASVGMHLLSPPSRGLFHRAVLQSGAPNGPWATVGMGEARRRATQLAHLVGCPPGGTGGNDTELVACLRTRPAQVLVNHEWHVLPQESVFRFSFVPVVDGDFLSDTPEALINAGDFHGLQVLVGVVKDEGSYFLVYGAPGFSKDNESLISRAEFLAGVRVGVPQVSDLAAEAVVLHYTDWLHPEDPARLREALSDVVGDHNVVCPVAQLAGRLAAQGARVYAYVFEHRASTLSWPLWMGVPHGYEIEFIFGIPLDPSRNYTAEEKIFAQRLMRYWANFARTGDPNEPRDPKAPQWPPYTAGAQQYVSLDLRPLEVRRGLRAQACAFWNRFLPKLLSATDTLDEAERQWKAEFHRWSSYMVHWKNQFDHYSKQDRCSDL
Sequence of Cholinesterase (Homo sapiens, UniProt P06276) (P06276 whole entry): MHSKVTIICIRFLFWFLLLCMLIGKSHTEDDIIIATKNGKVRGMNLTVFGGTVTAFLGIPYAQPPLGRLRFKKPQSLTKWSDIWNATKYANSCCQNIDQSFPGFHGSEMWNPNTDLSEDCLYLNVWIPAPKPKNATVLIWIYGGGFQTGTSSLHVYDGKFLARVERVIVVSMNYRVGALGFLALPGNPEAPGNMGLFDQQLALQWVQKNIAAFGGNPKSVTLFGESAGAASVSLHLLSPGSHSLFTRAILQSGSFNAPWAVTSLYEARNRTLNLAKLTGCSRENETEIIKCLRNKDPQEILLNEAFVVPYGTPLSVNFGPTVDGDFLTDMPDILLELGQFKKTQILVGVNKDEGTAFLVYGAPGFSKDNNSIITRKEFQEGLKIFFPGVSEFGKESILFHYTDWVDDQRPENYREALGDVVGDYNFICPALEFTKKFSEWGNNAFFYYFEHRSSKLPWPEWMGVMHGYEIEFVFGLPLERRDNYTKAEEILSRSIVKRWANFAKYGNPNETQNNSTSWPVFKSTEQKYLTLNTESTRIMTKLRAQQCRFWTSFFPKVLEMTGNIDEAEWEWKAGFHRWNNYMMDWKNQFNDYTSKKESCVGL

COc1cc2c(cc1OC)C(=O)C(CC1CCN(Cc3ccccc3)CC1)C2 (centres undefined) [DONEPEZIL]
inhibition [1]: 1.3% | Activity (Mus musculus [2]): Active | Activity (Mus musculus [3]): Active | Activity (Mus musculus [4]): Active | Activity (Mus musculus [5]): Active | viability at 24 h, 50 µM [6]: 91.1% | Activity (Mus musculus [7]): Active | inhibition in vivo at 15 mg/kg (Mus musculus [8]): 19% | Activity (Mus musculus [9]): Active

C=C(C)[C@@H]1CCC(C)=C[C@H]1c1c(O)cc(CCCCC)cc1O [CANNABIDIOL]
inhibition [1]: 66.7% | viability at 24 h, 50 µM [10]: 92.6% | IC50 (Cholinesterase [11]): 670 nM | viability at 25 µM (PC-12 [12]): 17.9% | IC50 (Acetylcholinesterase [13]; read-out: IC50): 17100 nM | logD at 48 h [14]: 1.67 | viability at 24 h, 25 µM [15]: 20.1% | Papp at 18 h, 100 ug/ml [16]: 22.7 ×10⁻⁶ cm/s

C=C(C)[C@@H]1CCC(C)=C[C@H]1c1c(O)cc(CCCCC)cc1OC(=O)N1CCCC1
inhibition [1]: 4.9% | K [17]: 0.94 µM/min | IC50 (Cholinesterase [11]): 390 nM | Kd (Cholinesterase [18]): 350 nM | IC50 (Acetylcholinesterase [13]): Not Active | K [19]: 0.33 min⁻¹ | K [20]: 5.13 10^3/min

C=C(C)[C@@H]1CCC(C)=C[C@H]1c1c(O)cc(CCCCC)cc1OC(=O)N(C)Cc1cccc(F)c1
inhibition [1]: inactive | IC50 (Cholinesterase [11]): 4870 nM | IC50 (Acetylcholinesterase [13]): Not Active

C=C(C)[C@@H]1CCC(C)=C[C@H]1c1c(O)cc(CCCCC)cc1OC(=O)N(C)Cc1ccc(Cl)cc1
Activity [21]: Non-Toxic | inhibition [1]: 27.1% | viability at 24 h, 50 µM [10]: 96% | Activity (Mus musculus [22]): Active | K [17]: 20.3 µM/min | Activity (Mus musculus [23]): Active | inhibition in vivo at 5 mg/kg (Mus musculus [24]): 31.6% | IC50 (Cholinesterase [11]): 5.3 nM | Activity [25]: Non-Toxic | Activity [26]: Non-Toxic | viability at 25 µM (PC-12 [12]): 41.9% | Activity (Mus musculus [27]): Active | Activity (Mus musculus [28]): Active | Kd (Cholinesterase [18]): 13 nM | K [19]: 0.26 min⁻¹ | K [20]: 5.2 10^3/min | logD at 48 h [14]: 2.38 | Activity (Mus musculus [29]): Active | viability at 24 h, 50 µM [6]: 88.3% | Activity [30]: Non-Toxic | Activity [31]: Non-Toxic | inhibition (Acetylcholinesterase [32]): 26.3% | Activity (Mus musculus [33]): Active | inhibition [34]: 21.4% | Activity (PC-12 [35]): Dose-Dependent Effect | Activity [36]: Non-Toxic | IC50 (Cholinesterase [37]): 1770 nM | Activity [38]: Non-Toxic | Papp at 18 h, 100 ug/ml [16]: 12.9 ×10⁻⁶ cm/s | Activity (Mus musculus [39]): Active

C=C(C)[C@@H]1CCC(C)=C[C@H]1c1c(OC(=O)N(C)Cc2ccccc2)cc(CCCCC)cc1OC(=O)N(C)Cc1ccccc1
inhibition [1]: 41.8% | IC50 (Cholinesterase [11]): 380 nM | IC50 (Acetylcholinesterase [13]): Not Active

C=C(C)[C@@H]1CCC(C)=C[C@H]1c1c(O)cc(CCCCC)cc1OC(=O)N(C)Cc1cccc(Br)c1
inhibition [1]: inactive | IC50 (Cholinesterase [11]): 2400 nM | IC50 (Acetylcholinesterase [13]): Not Active

C=C(C)[C@@H]1CCC(C)=C[C@H]1c1c(O)cc(CCCCC)cc1OC(=O)N(C)CC
inhibition [1]: 31.1% | IC50 (Cholinesterase [11]): 77 nM | IC50 (Acetylcholinesterase [13]; read-out: IC50): 15000 nM | logD at 48 h [14]: 1.92 | inhibition (Acetylcholinesterase [32]): 13.2% | IC50 (Cholinesterase [37]): 1510 nM | Papp at 18 h, 100 ug/ml [16]: 18.8 ×10⁻⁶ cm/s

C=C(C)[C@@H]1CCC(C)=C[C@H]1c1c(OC(=O)N2CCCC2)cc(CCCCC)cc1OC(=O)N1CCCC1
inhibition [1]: 17.8% | IC50 (Cholinesterase [11]): 530 nM | IC50 (Acetylcholinesterase [13]): Not Active

C=C(C)[C@@H]1CCC(C)=C[C@H]1c1c(O)cc(CCCCC)cc1OC(=O)N(CC)CC
inhibition [1]: 40.4% | IC50 (Cholinesterase [11]): 370 nM | inhibition [34]: 28.4%

C=C(C)[C@@H]1CCC(C)=C[C@H]1c1c(O)cc(CCCCC)cc1OC(=O)N1CCCCC1
inhibition [1]: 46.8% | IC50 (Cholinesterase [11]): 530 nM | inhibition [34]: 30.5%
